For series [1], the system named is hypersensitive dopamine receptor. The series is described as follows: motility triggering in the mouse treated 24 hours earlier with reserpine. The conditions noted are these: Mus musculus, sc; reserpine-treated mice, s.c.; read-out: DLi50 (dosage resulting in 50 running pulses every 5 minutes). Format: in vivo. Here is the method:
This test determines predominantly agonistic effects on the hypersensitive dopamine receptor.
Male mice are treated 24 hours before the experiment with 5 mg/kg i.p. reserpine. The animals are kept at 25°-30° C. and treated three times with 2 ml of a 5% glucose solution in tyrode s.c. (the first time when the reserpine is given, the second time in the evening of the pre-treatment day and the third time on the morning of the test day).
[…] (The injection volume is usually 0.1 ml/10 g of body weight). 30 minutes later the groups of animals are placed in the observation cages (measuring 42 x 24 x 8 cm) and fitted with an infrared lightbeam in order to measure their activity. The value measured is the frequency with which a group of 6 mice pass through the infra-red beam within 5 minutes ("running pulses/5 minutes"; mean at n=3; mean±s.e.m. at n=6).
3 to 6 groups are tested for each substance.

In a further series the target is dopamine D2-receptors (Rattus norvegicus, UniProt P61169). The series is described as follows: affinity for dopamine D2-receptors by displacement experiments with [3H]-spiperone (rat striatum membranes). Type of series: binding.
Chain of dopamine D2-receptors (P61169 whole entry): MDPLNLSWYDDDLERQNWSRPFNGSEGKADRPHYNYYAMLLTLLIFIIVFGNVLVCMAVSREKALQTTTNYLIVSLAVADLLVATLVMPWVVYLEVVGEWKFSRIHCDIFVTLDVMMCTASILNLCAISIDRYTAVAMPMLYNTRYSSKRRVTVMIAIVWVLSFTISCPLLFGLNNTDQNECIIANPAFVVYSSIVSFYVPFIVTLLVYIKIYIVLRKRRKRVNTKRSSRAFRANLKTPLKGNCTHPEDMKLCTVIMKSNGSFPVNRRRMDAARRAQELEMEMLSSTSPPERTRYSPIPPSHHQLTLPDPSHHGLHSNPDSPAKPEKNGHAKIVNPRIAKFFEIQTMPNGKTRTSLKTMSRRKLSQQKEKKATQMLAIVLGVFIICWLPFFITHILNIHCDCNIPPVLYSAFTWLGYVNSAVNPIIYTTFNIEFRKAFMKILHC
The target in another series is T1, alpha-2 receptors (Rattus norvegicus, UniProt P22909).
T1 sequence (P22909 1-465): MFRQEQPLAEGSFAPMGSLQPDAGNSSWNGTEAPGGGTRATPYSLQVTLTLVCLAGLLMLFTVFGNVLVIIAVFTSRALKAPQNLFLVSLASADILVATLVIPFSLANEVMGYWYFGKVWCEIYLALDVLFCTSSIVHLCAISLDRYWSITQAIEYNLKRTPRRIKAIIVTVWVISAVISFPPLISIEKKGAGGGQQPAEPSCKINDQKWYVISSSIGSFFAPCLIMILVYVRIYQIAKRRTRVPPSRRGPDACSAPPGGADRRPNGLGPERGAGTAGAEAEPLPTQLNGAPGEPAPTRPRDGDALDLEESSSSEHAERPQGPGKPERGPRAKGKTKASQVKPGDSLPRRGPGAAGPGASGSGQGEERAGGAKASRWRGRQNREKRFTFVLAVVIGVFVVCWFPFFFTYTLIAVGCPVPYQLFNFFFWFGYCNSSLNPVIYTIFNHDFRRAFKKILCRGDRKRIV
The series is described as follows: affinity for alpha-2 receptors by displacement experiments with [3H]-clonidine (rat cortex membranes). To be noted: read-out: α2-IC50. Format: binding.

A further series has as its system MPTP monkeys. The series can be described thus: post-synaptic dopaminergic activity in MPTP monkeys. Format: in vivo, rhesus monkey. An excerpt:
6. Determining the post-synaptic dopaminergic activity in MPTP monkeys (Modified Method of R. S. Burns et al., Proc. Natl. Acad. Sci. 80. 4546 (1983))
The neurotoxin 1-methyl-4-phenyl-1,2,3,6- tetrahydro-pyridine (MPTP) produces in humans and monkeys an irreversible syndrome which in its clinical, pathological, biochemical and pharmacological appearance is very similar to idiopathic Parkinson's disease (Markey et al., Nature 311, 464 (1984)). The reason for this similarity is that MPTP selectively destroys those dopaminergic nerve cells in the substantia nigra of the brain which are also lost by degenerative processes in Parkinson's disease. There is even some discussion that MPTP or an MPTP-like substance might be formed in the body and trigger Parkinson's disease (S. H. Snyder, Nature 311, 514 (1984)). Possibly because of the specific MPTP metabolism, the clinical formation of the MPTP-induced Parkinson syndrome has hitherto been detected only in humans and monkeys. The MPTP model produced in the rhesus monkey is therefore exceptionally suitable for testing the activity of post-synaptically acting dopamine agonists. For this purpose, rhesus monkeys were given MPTP in overall doses of up to about 6 mg/kg of body weight, until the following symptoms appeared: The animals were akinetic and unable to take water and food.
It is clear that with the compounds according to the invention there is no sedative effect or ataxia at a dosage which is several times the MED, which can be put down to the absence of a corresponding activity mediated by the α2- receptors.

What is called Ki is a measure of affinity in units of concentration, obtained from inhibition or displacement. Higher therefore signals lower affinity. As a reminder, the IC50 is the point on the concentration scale where inhibition reaches its midpoint.

For the molecule `Nc1nc2c(s1)CCN(CC=Cc1ccccn1)CC2` [Example 11a, 2-Amino-6-(3-(2-pyridyl)allyl)-4,5,7,8-tetrahydro-6H-thiazolo[5,4-d]azepin], in series [1], the ED (50 running pulses/5 min) stood at 0.35 mg/kg. The molecule also yielded a Ki at dopamine D2-receptors ([3H]-spiperone, high-affinity form of the dopamine receptor) of 4.3 nM. In addition, the “α2-IC50 / D2-Ki” value at dopamine D2-receptors (relative affinity for dopamine-D2 receptors compared with α2-adrenoceptors, the higher, the higher the D2/α2 selectivity) stood at 176. Further, at alpha-2 receptors, the IC50 stood at 760 nM. In addition, in the series with MPTP monkeys (0.05 mg/kg i.m. (MED)), the Duration of activity fell in the range of 1.5 to 2 h and the Side effects entry was “none”. For the same molecule, in the series on MPTP monkeys (3.00 mg/kg i.m.), the Duration of activity amounted to 5 h. Moreover, in the series with MPTP monkeys (Primates, in Macaca mulatta, im, rhesus monkeys, i.m., read-out: minimum dose (MED) required to alleviate the Parkinson's symptoms), the minimal effective dose was 0.05 mg/kg.

Values taken from patent US5068325A, “4,5,7,8-tetrahydro-6H-thiazolo[5,4-d]azepines, their preparation and their use as pharmaceutical compositions” (priority 1988, dated 1991).
